Measured values: US10208071B2, “Use of agonists of formyl peptide receptor 2 for treating ocular inflammatory diseases” (Allergan, Inc., priority 2013, dated 2019)

Biological target: FPR2 (Homo sapiens (Human), UniProt P25090)
Assay: FLIPR Ca+2 response, HEK-Gα16 cells stably expressing the human FPR2 receptor (Table 4)
Assay type: cell-based
Settings: for FPR2 (efficacy): efficacy in parentheses
Method: FLIPR: HEK-Gα16 cells stably expressing the human FPR2 receptor was utilized. Cells were plated into 384-well poly-D-lysine coated plates at a density of 18,000 cells per well one day prior to use. The growth media was DMEM medium supplemented with 10% fetal bovine serum (FBS), 1% antibiotic-antimycotic, 50 μg/ml hygromycin, and 400 μg/ml geneticin. On the day of the experiment, the cells were washed twice with Hank's Balanced Salt Solution supplemented with 20 mM HEPES (HBSS/hepes buffer). The cells were then dye loaded with 2 μM Fluo-4 diluted in the HBSS/Hepes buffer and incubated at 37° C. for 40 minutes. Extracellular dye was removed by washing the cell plates four times prior to placing the plates in the FLIPR (Fluorometric Imaging Plate Reader, Molecular Devices). Ligands were diluted in HBSS/Hepes buffer and prepared in 384-well microplates. Data for Ca^+2 responses were obtained in relative fluorescence units.

Chain of FPR2 (P25090 whole entry): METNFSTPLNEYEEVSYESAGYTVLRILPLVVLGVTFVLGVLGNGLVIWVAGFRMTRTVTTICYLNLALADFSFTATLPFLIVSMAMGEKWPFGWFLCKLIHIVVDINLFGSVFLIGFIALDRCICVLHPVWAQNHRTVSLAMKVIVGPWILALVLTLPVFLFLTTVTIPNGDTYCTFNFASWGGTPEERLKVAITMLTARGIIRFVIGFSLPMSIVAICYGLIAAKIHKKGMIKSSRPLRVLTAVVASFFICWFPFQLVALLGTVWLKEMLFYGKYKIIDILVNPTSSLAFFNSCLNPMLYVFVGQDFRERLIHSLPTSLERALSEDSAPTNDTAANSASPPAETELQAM

FPR2 (efficacy)	EC50	Compound
nM (1.00)	–	CSc1ccc(NC(=O)Nc2ccc3c(c2)C(=O)N(CCCN)C(C)C3)cc1 (stereo not shown) [Compound 42, 1-[2-(3-aminopropyl)-3-methyl-1-oxo-1,2,3,4-tetrahydroisoquinolin-7-yl]-3-[4-(methylsulfanyl)phenyl]urea]
nM (0.94)	13.7 nM	N#Cc1ccc(C2Cc3ccc(NC(=O)Nc4ccc(I)cc4)cc3C(=O)N2CCCN)cc1 (stereo not shown) [Compound 43, 1-[2-(3-aminopropyl)-3-(4-cyanophenyl)-1-oxo-1,2,3,4-tetrahydroisoquinolin-7-yl]-3-(4-iodophenyl)urea]
nM (0.98)	–	O=C(Nc1ccc(Br)cc1)[C@@H]1C2CCC([C@@H]1C(=O)O)C21CC1 (stereo partly drawn) [Compound 44, (+) (2S,3R)-3-[(4-bromophenyl)carbamoyl]spiro[bicyclo[2.2.1]heptane-7,1′-cyclopropane]-2-carboxylic acid]
nM (0.98)	11.5 nM	CCC1(CC)NC(=O)N(NC(=O)Nc2ccc(Br)cc2)C1=O [Compound 49, 1-(4-bromophenyl)-3-(4,4-diethyl-2,5-dioxoimidazolidin-1-yl)urea]
nM (1.0)	15.7 nM	CCC1(CC)NC(=O)N(NC(=O)Nc2ccc(Br)cc2F)C1=O [Compound 50, 1-(4-bromo-2-fluorophenyl)-3-(4,4-diethyl-2,5-dioxoimidazolidin-1-yl)urea]
nM (0.87)	–	CC1(CCc2ccccc2)NC(=O)N(NC(=O)Nc2ccc(Br)cc2)C1=O (stereo not shown) [Compound 54, 1-(4-bromophenyl)-3-[4-methyl-2,5-dioxo-4-(2-phenylethyl)imidazolidin-1-yl]urea]
nM (0.99)	–	O=C(O)CNC(=O)[C@H](Cc1ccccc1)NC(=O)Nc1ccc(Br)cc1 [Compound 55, {[(2S)-2-{[(4-bromophenyl)carbamoyl]amino}-3-phenylpropanoyl]amino}acetic acid]
nM (0.98)	–	O=C(O)CCNC(=O)[C@H](Cc1ccccc1)NC(=O)Nc1ccc(Br)cc1 [Compound 56, 3-{[(2S)-2-{[(4-bromophenyl)carbamoyl]amino}-3-phenylpropanoyl]amino} propanoic acid]
nM (0.95)	–	CC[C@H](C)[C@H](NC(=O)Nc1ccc(Br)cc1F)C(=O)NCC(=O)O [Compound 59, {[(2S,3S)-2-{[(4-bromo-2-fluorophenyl)carbamoyl]amino}-3-methylpentanoyl]amino}acetic acid]
nM (0.97)	9.2 nM	CCC1(C(C)C)NC(=O)N(NC(=O)Nc2ccc(Br)cc2F)C1=O (stereo not shown) [Compound 61, 1-(4-bromo-2-fluorophenyl)-3-[4-2,5-dioxo-4-(propan-2-yl)imidazolidin-1-yl]urea]
nM (1.0)	–	O=C(Nc1ccc(Br)cc1)NN1C(=O)NC(C2CC2)(C2CC2)C1=O [Compound 65, 1-(4-bromophenyl)-3-(4,4-dicyclopropyl-2,5-dioxoimidazolidin-1-yl)urea]
nM (0.94)	12.4 nM	CC(=O)CNC(=O)[C@H](Cc1ccccc1)NC(=O)Nc1ccc(Br)cc1F [Compound 68, (2S)-2-{[(4-bromo-2-fluorophenyl)carbamoyl]amino}-N-(2-oxopropyl)-3-phenylpropanamide]
nM (1.0)	7.1 nM	CCC[C@H](NC(=O)Nc1ccc(Br)cc1)C(=O)O [Compound 70, (2S)-2-{[(4-bromophenyl)carbamoyl]amino} pentanoic acid]
nM (0.86)	16.4 nM	CCC[C@H](NC(=O)Nc1ccc(Br)cc1)C(=O)NCC(=O)OC [Compound 72, methyl{[(2S)-2-{[(4-bromophenyl)carbamoyl]amino}pentanoyl]amino}acetate]
nM (1.0)	14.5 nM	CCC[C@H](NC(=O)Nc1ccc(Br)cc1)C(=O)NCC(=O)OC(C)C [Compound 73, propan-2-yl {[(2S)-2-{[(4-bromophenyl)carbamoyl]amino}pentanoyl]amino}acetate]
nM (0.76)	13.5 nM	CC(C)C[C@H](NC(=O)Nc1ccc(Br)cc1)C(=O)NCCO [Compound 75, (2S)-2-{[(4-bromophenyl)carbamoyl]amino}-N-(2-hydroxyethyl)-4-methylpentanamide]
nM (0.99)	5.2 nM	CC1(CCc2ccco2)NC(=O)N(NC(=O)Nc2ccc(Br)cc2)C1=O (stereo not shown) [Compound 76, 1-(4-bromophenyl)-3-{4-[2-(furan-2-yl)ethyl]-4-methyl-2,5-dioxoimidazolidin-1-yl}urea]
nM (0.82)	–	CC(=O)CNC(=O)[C@H](CC(C)C)NC(=O)Nc1ccc(Br)cc1 [Compound 78, (2S)-2-{[(4-bromophenyl)carbamoyl]amino}-4-methyl-N-(2-oxopropyl)pentanamide]
nM (0.97)	–	CCC[C@H](NC(=O)Nc1ccc(Br)cc1)C(=O)NCC(N)=O [Compound 79, (2S)-N-(2-amino-2-oxoethyl)-2-{[(4-bromophenyl)carbamoyl]amino} pentanamide]

The remaining lines, values behind:

Compound	FPR2 (efficacy)	EC50
CNC(=O)C1C(C(=O)Nc2ccc(Br)cc2)C2CCC1C21CC1 (stereo not shown) [Compound 46, N-(4-bromophenyl)-N′-methylspiro[bicyclo[2.2.1]heptane-7,1′-cyclopropane]-2,3-dicarboxamide]	nM (1.0)	8.5 nM
CCNC(=O)C1C(C(=O)Nc2ccc(Br)cc2)C2CCC1C21CC1 (stereo not shown) [Compound 47, N-(4-bromophenyl)-N′-ethylspiro[bicyclo[2.2.1]heptane-7,1′-cyclopropane]-2,3-dicarboxamide]	nM (1.0)	9.3 nM
CC(C)NC(=O)C1C(C(=O)Nc2ccc(Br)cc2)C2CCC1C21CC1 (stereo not shown) [Compound 48, N-(4-bromophenyl)-N′-(propan-2-yl)spiro[bicyclo[2.2.1]heptane-7,1′-cyclopropane]-2,3-dicarboxamide]	nM (1.0)	6.7 nM
O=C(Nc1ccc(I)cc1)N[C@@H](Cc1ccccc1)C(=O)O [Compound 51, (2S)-2-{[(4-iodophenyl)carbamoyl]amino}-3-phenylpropanoic acid]	nM (1.0)	–
O=C(Nc1ccc(Br)cc1)NN1C(=O)NC2(CCCCC2)C1=O [Compound 52, 1-(4-bromophenyl)-3-(2,4-dioxo-1,3-diazaspiro[4.5]dec-3-yl)urea]	nM (1.0)	15.1 nM
O=C(Nc1ccc(Br)cc1)N[C@@H](Cc1ccccc1)C(=O)NCCO [Compound 58, (2S)-2-{[(4-bromophenyl)carbamoyl]amino}-N-(2-hydroxyethyl)-3-phenylpropanamide]	nM (0.86)	7 nM
CC[C@H](C)[C@H](NC(=O)Nc1ccc(Br)cc1)C(=O)NCC(N)=O [Compound 60, (2S,3S)-N-(2-amino-2-oxoethyl)-2-{[(4-bromophenyl)carbamoyl]amino}-3-methylpentanamide]	nM (0.91)	–
CC[C@H](C)[C@H](NC(=O)Nc1ccc(Br)cc1F)C(=O)NCC(N)=O [Compound 62, (2S,3S)-N-(2-amino-2-oxoethyl)-2-{[(4-bromo-2-fluorophenyl)carbamoyl]amino}-3-methylpentanamide]	nM (1.0)	10.3 nM
CC[C@H](C)[C@H](NC(=O)Nc1ccc(Br)cc1)C(=O)NCC(C)=O [Compound 63]	nM (0.97)	10.5 nM
CC(C)C1(C(C)C)NC(=O)N(NC(=O)Nc2ccc(Br)cc2)C1=O [Compound 64, 1-(4-bromophenyl)-3-[2,5-dioxo-4,4-di(propan-2-yl)imidazolidin-1-yl]urea]	nM (1.0)	3.8 nM
CCC1(CCc2ccccc2)NC(=O)N(NC(=O)Nc2ccc(Br)cc2F)C1=O (stereo not shown) [Compound 69, 1-(4-bromo-2-fluorophenyl)-3-[4-ethyl-2,5-dioxo-4-(2-phenylethyl)imidazolidin-1-yl]urea]	nM (0.91)	13.4 nM
O=C(Nc1ccc(Br)cc1F)N[C@@H](Cc1ccccc1)C(=O)NCCO [Compound 71, (2S)-2-{[(4-bromo-2-fluorophenyl)carbamoyl]amino}-N-(2-hydroxyethyl)-3-phenylpropanamide]	nM (0.98)	15.6 nM
CCC[C@H](NC(=O)Nc1ccc(Br)cc1F)C(=O)NCC(=O)O [Compound 74, {[(2S)-2-+{[(4-bromo-2-fluorophenyl)carbamoyl]amino}pentanoyl]amino}acetic acid]	nM (0.91)	4.1 nM
CC(C)C[C@H](NC(=O)Nc1ccc(Br)cc1)C(=O)NCC(N)=O [Compound 77, (2S)-N-(2-amino-2-oxoethyl)-2-{[(4-bromophenyl)carbamoyl]amino}-4-methylpentanamide]	nM (1.0)	1.1 nM
